The record followed here is patent US20240415804A1, “METHOD OF TREATING PANCREATIC CANCER” (University of South Florida, priority 2022, published 2024).

Details in all cases: miR-155 inhibitor 100 nM, 24 h, vs scrambled miRNA
In data set [1] the test system is miR-155. The experiment in a line: miR-155 gene expression by RT-qPCR in MiaPaCa-2 cells. The data set is classed as cell-based, human. As for the experimental part:
(§1) MiR-155 is known to be overexpressed in different cancers, including PC^21, 23. The inventors first assessed whether apigenin could modulate the expression of miR-155 in PC cells. Murine PC cell lines Panc02 and UN-KC-6141 as well as the human PC cell line MiaPaCa-2 were treated with API (40 μM) or DMSO vehicle for 24 h and the expression of miR-155 was examined using RT-qPCR assay. […] Since API is known to inhibit the growth of cancer cells, including PC cells^39-43, 47-50, the same PC cell lines were treated with API (40 μM) or DMSO (vehicle) for 24 h and examined cell viability using MTT assay. […] Moreover, Panc02 and UN-KC-6141 cells were then treated with API at a dose dependent concentration (10, 20, 30, 40, 50 μM) and detected apoptosis using flow cytometry (Annexin V and PI).
(§2) miR-155 is implicated in the development of pancreatic tumors from pancreatic intraepithelial neoplasia (PanIN) lesions, and is overexpressed in PC^23. The inventors examined whether the depletion of miR-155 modulated PC viability. Murine and human PC cell lines were transfected with miR-155 inhibitor (i.e., MMU-MIR-155-5P/HSA-MIR-155-5P) and scrambled miRNA at a concentration of 100 nM for 24 h and cell viability determined using an MTT assay. The expression of miR-155 was examined using an RT-qPCR assay as well. […]
(Real-time PCR tracks product formation cycle by cycle.)

The next data set deals with MiaPaCa-2 cells. The data set is described as follows: MTT cell viability assay, MiaPaCa-2. It is filed as cell-based, human. The method, then: (§3) The methyl thiazol tetrazolium (MTT) assay was performed as described previously^58. Briefly, MiaPaCa-2, Panc02 and UN-KC-6141 cells were seeded in 96-well plates at a density of 3000 cells/well and allowed to attach overnight. PC cells were then treated with API (40 μM) or DMSO (1%) as vehicle control for 24 h at 37° C. in 5% CO2 incubator. After 24 h, media was replaced with 20 μL of MTT (1 mg/mL) (Sigma-Aldrich) and incubated for 3 h at 37° C. in 5% CO2. MTT was replaced with DMSO, and absorbance was read at 570 nm.
(§4) MiaPaCa-2, Panc02 and UN-KC-6141 cells (2×10^5) were grown in 2 mL of growth medium in a 6-well tissue culture plate for 18-24 h until 60-80% confluency. The following solutions were prepared: Solution A) For each transfection, diluted 1 μL of miRNA-155 inhibitors (1 μM) (Table 2) or scrambled negative control miRNA (1 μM) (Qiagen, Germantown, MD, USA) into 50 μL Opti-MEM Transfection Medium (Invitrogen, Waltham, MA, USA). Solution B) For each transfection, diluted 3 μL of Hi-Perfect Transfection Reagent into 50 μL Opti-MEM Transfection Medium. Solution A was added directly to Solution B, mixed gently and the mixture incubated for 10-15 min at room temperature. […]
Background: Tetrazolium dyes change colour on reduction, which living cells bring about.

The next data set deals with Panc02 cells. The experiment in a line: MTT cell viability assay, Panc02. The data set is classed as cell-based, mouse. The method, then:
as §3, §4

For the next data set, the system named is UN-KC-6141 cells. The data set is described as follows: MTT cell viability assay, UN-KC-6141. It is filed as cell-based, mouse. The method, then: as §3, §4
Data set [2] deals with miR-155. The data set is described as follows: miR-155 gene expression by RT-qPCR in UN-KC-6141 cells. The data set is classed as cell-based, mouse. The method, then:
as §1, §2

In data set [3] the test system is miR-155. The data set is described as follows: miR-155 gene expression by RT-qPCR in Panc02 cells. The data set is classed as cell-based, mouse. As for the experimental part: as §1, §2

“HSA-MIR-155-5P: Qiagen miRCURY LNA miRNA inhibitor (human), sequence 5′-3′ CCTATCACGATTAGCATT, SEQ ID NO: 2 (LNA-modified commercial inhibitor, pattern not given here; listed 3' to 5'; listed as Homo sapiens) [reference compound]”: the miR-155 gene expression result in the data set with miR-155 [1] was “significantly depleted”. The “cell viability (MTT)” value in the data set with MiaPaCa-2 cells is listed as “suppressed”.

Consider “MMU-MIR-155-5P: Qiagen miRCURY LNA miRNA inhibitor (mouse), sequence 5′-3′ CCCCTATCACAATTACCATT, SEQ ID NO: 1 (CCCCTATCACAATTAGCATT; LNA-modified commercial inhibitor, pattern not given here; listed 3' to 5'; listed as Mus musculus) [reference compound]”, for which the “cell viability (MTT)” value in the data set with Panc02 cells and in the data set on UN-KC-6141 cells was “suppressed” in each case. The miR-155 gene expression result with miR-155 [2] and in the data set with miR-155 [3] was “significantly depleted” each time.
